The text below walks through data of ChEMBL document CHEMBL1671858, “Coprevalence of plasmid-mediated quinolone resistance determinants QepA, Qnr, and AAC(6')-Ib-cr among 16S rRNA methylase RmtB-producing Escherichia coli isolates from pigs” (2008).

Holding throughout (assay type): functional
For assay [1], the system named is Escherichia coli. The assay can be described thus: Antimicrobial activity against Escherichia coli isolate GZ9 PFGE type D harboring qepA gene by agar dilution method.
The test system of assay [2] is Escherichia coli. Put plainly: Antimicrobial activity against Escherichia coli isolate GZ13 PFGE type F harboring qepA gene by agar dilution method.
The test system of assay [3] is Escherichia coli. Put plainly: Antimicrobial activity against Escherichia coli isolate GZ16 PFGE type H harboring qepA gene by agar dilution method. For orientation: In agar dilution, organisms are placed on agar that contains the substance at set levels.
Assay [4] concerns Escherichia coli. The assay can be described thus: Antimicrobial activity against Escherichia coli isolate CQ18 PFGE type I2 harboring qepA gene by agar dilution method.
For assay [5], the system named is Escherichia coli. Put plainly: Antimicrobial activity against Escherichia coli isolate CQ20 PFGE type J1 harboring qepA gene by agar dilution method.
Assay [6] has as its system Escherichia coli. Put plainly: Antimicrobial activity against Escherichia coli isolate CQ26 PFGE type K harboring qepA gene by agar dilution method.
Assay [7] has as its system Escherichia coli. The assay can be described thus: Antimicrobial activity against Escherichia coli isolate CQ10 PFGE type L harboring qepA gene by agar dilution method.
For assay [8], the system named is Escherichia coli. Put plainly: Antimicrobial activity against Escherichia coli isolate CQ6 PFGE type Q harboring qepA gene by agar dilution method.
Assay [9] relates to Escherichia coli. Put plainly: Antimicrobial activity against Escherichia coli isolate GZ10 PFGE type R harboring qepA gene by agar dilution method.
Assay [10] relates to Escherichia coli. The assay can be described thus: Antimicrobial activity against Escherichia coli isolate CQ1 PFGE type U harboring qepA gene by agar dilution method.
Assay [11] deals with Escherichia coli. Put plainly: Antimicrobial activity against Escherichia coli isolate GZ3 transconjugant harboring 16S rRNA methylase RmtB and qepA by agar dilution method relative to recipient strain.
In assay [12] the test system is Escherichia coli. The assay can be described thus: Antimicrobial activity against Escherichia coli isolate GZ4 transconjugant harboring 16S rRNA methylase RmtB and qepA by agar dilution method relative to recipient strain.
Assay [13] concerns Escherichia coli. Put plainly: Antimicrobial activity against Escherichia coli isolate GZ6 transconjugant harboring 16S rRNA methylase RmtB and qepA by agar dilution method relative to recipient strain.
Assay [14] has as its system Escherichia coli. Put plainly: Antimicrobial activity against Escherichia coli isolate GZ9 transconjugant harboring 16S rRNA methylase RmtB and qepA by agar dilution method relative to recipient strain.
The subject of assay [15] is Escherichia coli. Put plainly: Antimicrobial activity against Escherichia coli isolate GZ13 transconjugant harboring 16S rRNA methylase RmtB and qepA by agar dilution method relative to recipient strain.
Assay [16] has as its system Escherichia coli. The assay can be described thus: Antimicrobial activity against Escherichia coli isolate CQ2 transconjugant harboring 16S rRNA methylase RmtB and qepA by agar dilution method relative to recipient strain.
Assay [17] has as its system Escherichia coli. Put plainly: Antimicrobial activity against Escherichia coli isolate CQ5 transconjugant harboring 16S rRNA methylase RmtB and qepA by agar dilution method relative to recipient strain.
The test system of assay [18] is Escherichia coli. Put plainly: Antimicrobial activity against Escherichia coli isolate CQ14 transconjugant harboring 16S rRNA methylase RmtB and qepA by agar dilution method relative to recipient strain.
The test system of assay [19] is Escherichia coli. The assay can be described thus: Antimicrobial activity against Escherichia coli isolate CQ13 transconjugant harboring 16S rRNA methylase RmtB and qnrS1 by agar dilution method relative to recipient strain.
Assay [20] relates to Escherichia coli. The assay can be described thus: Antimicrobial activity against Escherichia coli isolate CQ1 transconjugant harboring 16S rRNA methylase RmtB and qnrB6 by agar dilution method relative to recipient strain.

In brackets after ≈: the same amount, converted by molar mass.

A word on the MIC: it is the smallest concentration in the dilution series that meets the test's criterion for growth inhibition. A high value points to weaker potency. With `CCN1CCN(c2cc3c(cc2F)c(=O)c(C(=O)O)cn3C2CC2)CC1` [ENROFLOXACIN], the minimum inhibitory concentration (MIC) is 32 µg/mL (≈ 89 µM) in assay [1]; 8 µg/mL (≈ 22.3 µM) in assay [2]; greater than 128 µg/mL in assay [3]; 2 µg/mL (≈ 5.56 µM) in assay [4]; 0.03 µg/mL (≈ 0.0835 µM) in assay [5]; 0.5 µg/mL (≈ 1.39 µM) in [6]. Further, the MIC in assay [7] came out at 0.25 µg/mL (≈ 0.696 µM); in assay [8], 2 µg/mL (≈ 5.56 µM); in [9], 16 µg/mL (≈ 44.5 µM); in assay [10], 0.25 µg/mL (≈ 0.696 µM). Moreover, the “fold change (FC)” value in assay [11] is listed as 4; in assay [12], 4; in assay [13], 2; in [14] it was 2; in assay [15] it was 2; in assay [16], 16. The “fold change (FC)” value in assay [17] is listed as 2; in assay [18] it was 2; in assay [19] it was 8; in assay [20] it was 1.
